# Results from the supplement of paper PMC10307832.
# Legend:
# Test in all cases: relative viability (nuclei count vs DMSO), 5 days (fraction); higher = more cells survive
# Motesanib + Lapatinib = compound: CC1(C)CNc2cc(NC(=O)c3cccnc3NCc3ccncc3)ccc21 [Motesanib] + CS(=O)(=O)CCNCc1ccc(-c2ccc3ncnc(Nc4ccc(OCc5cccc(F)c5)c(Cl)c4)c3c2)o1 [Lapatinib] (partner 2 µM)
# Outline: (§1)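 Lung cancer cell lines in 1536-well plates were dosed by pin tool the day after seeding, either with one drug alone or with a fixed anchor-drug dose plus five library-drug doses (not always all listed) in √10 steps. After 5 days, cells were fixed and their nuclei stained in one step (final 0.05% Triton X-100, 1% formaldehyde, 1 ug/ml Hoechst), then counted on 4× images. Relative viability is the nuclei count in treated wells divided by that in vehicle wells. Values are medians of duplicate plates.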
# Motesanib + Palbociclib = compound: CC1(C)CNc2cc(NC(=O)c3cccnc3NCc3ccncc3)ccc21 [Motesanib] + CC(=O)c1c(C)c2cnc(Nc3ccc(N4CCNCC4)cn3)nc2n(C2CCCC2)c1=O [Palbociclib] (partner 0.5 µM)
# Outline: as §1
# [1] = compound: C[C@@]1(C(=O)Nc2ccc(F)nc2)CCCN1c1nc(Nc2cc(C3CC3)n[nH]2)c2cccn2n1 + Cc1cc(Nc2cc(N3CCN(C)CC3)nc(Sc3ccc(NC(=O)C4CC4)cc3)n2)n[nH]1 [Tozasertib] (partner 0.1 µM)
# Outline: as §1
# [2] = compound: C[C@@]1(C(=O)Nc2ccc(F)nc2)CCCN1c1nc(Nc2cc(C3CC3)n[nH]2)c2cccn2n1 + CCNC(=O)c1noc(-c2cc(C(C)C)c(O)cc2O)c1-c1ccc(CN2CCOCC2)cc1 [Luminespib] (partner 0.01 µM)
# Outline: as §1
cell line,measurement,setting,value
UMC-11,relative viability,Motesanib + Lapatinib; first compound 0.01 µM,0.901
same,relative viability,Motesanib + Lapatinib; first compound 0.03162 µM,1.07
same,relative viability,Motesanib + Lapatinib; first compound 0.1 µM,0.724
same,relative viability,Motesanib + Lapatinib; first compound 0.3162 µM,1
same,relative viability,Motesanib + Lapatinib; first compound 1 µM,1.08
same,relative viability,Motesanib + Palbociclib; first compound 0.01 µM,0.317
same,relative viability,Motesanib + Palbociclib; first compound 0.03162 µM,0.302
same,relative viability,Motesanib + Palbociclib; first compound 0.1 µM,0.314
same,relative viability,Motesanib + Palbociclib; first compound 0.3162 µM,0.394
same,relative viability,Motesanib + Palbociclib; first compound 1 µM,0.347
same,relative viability,[1]; first compound 0.04 µM,0.2
same,relative viability,[1]; first compound 0.1265 µM,0.203
same,relative viability,[1]; first compound 0.4 µM,0.204
same,relative viability,[1]; first compound 1.265 µM,0.184
same,relative viability,[2]; first compound 0.04 µM,0.94
same,relative viability,[2]; first compound 0.1265 µM,1.01
same,relative viability,[2]; first compound 0.4 µM,0.968
same,relative viability,[2]; first compound 1.265 µM,0.726
